Laboratory results from ChEMBL document CHEMBL3046289, “Synthesis and in vitro antimicrobial activity of some newer quinazolinonesulfonamide linked hybrid heterocyclic entities derived from glycine” (2013).
≈ marks a conversion by molar mass, not a printed value.

How the values were obtained:
Format in all cases: functional
Candida albicans = assay: Antifungal activity against Candida albicans MTCC 227 assessed as growth inhibition after 48 hr by broth microdilution method; conditions: MTCC 227, 48 h
Aspergillus niger = assay: Antifungal activity against Aspergillus niger MTCC 282 assessed as growth inhibition after 48 hr by broth microdilution method; conditions: MTCC 282, 48 h
Klebsiella pneumoniae = assay: Antibacterial activity against Klebsiella pneumoniae MTCC 139 assessed as growth inhibition after 24 hr by broth microdilution method; conditions: MTCC 139, 24 h
Pseudomonas aeruginosa = assay: Antibacterial activity against Pseudomonas aeruginosa MTCC 1688 assessed as growth inhibition after 24 hr by broth microdilution method; conditions: MTCC 1688, 24 h
Escherichia coli = assay: Antibacterial activity against Escherichia coli MTCC 443 assessed as growth inhibition after 24 hr by broth microdilution method; conditions: MTCC 443, 24 h
Bacillus cereus = assay: Antibacterial activity against Bacillus cereus MTCC 1305 assessed as growth inhibition after 24 hr by broth microdilution method; conditions: MTCC 1305, 24 h
Staphylococcus aureus = assay: Antibacterial activity against Staphylococcus aureus MTCC 2940 assessed as growth inhibition after 24 hr by broth microdilution method; conditions: MTCC 2940, 24 h

MIC (Candida albicans)	MIC (Aspergillus niger)	MIC (Klebsiella pneumoniae)	MIC (Pseudomonas aeruginosa)	MIC (Escherichia coli)	MIC (Bacillus cereus)	MIC (Staphylococcus aureus)	SMILES
85 µg/mL (≈ 182 µM)	70 µg/mL (≈ 150 µM)	95 µg/mL (≈ 204 µM)	95 µg/mL (≈ 204 µM)	80 µg/mL (≈ 171 µM)	105 µg/mL (≈ 225 µM)	85 µg/mL (≈ 182 µM)	CC(=O)Nc1ccc(S(=O)(=O)NCc2nc3ccccc3c(=O)n2-c2ccccc2F)cc1
80 µg/mL (≈ 171 µM)	55 µg/mL (≈ 118 µM)	95 µg/mL (≈ 204 µM)	85 µg/mL (≈ 182 µM)	75 µg/mL (≈ 161 µM)	95 µg/mL (≈ 204 µM)	80 µg/mL (≈ 171 µM)	CC(=O)Nc1ccc(S(=O)(=O)NCc2nc3ccccc3c(=O)n2-c2ccc(F)cc2)cc1
120 µg/mL (≈ 259 µM)	105 µg/mL (≈ 227 µM)	145 µg/mL (≈ 313 µM)	125 µg/mL (≈ 270 µM)	115 µg/mL (≈ 248 µM)	130 µg/mL (≈ 280 µM)	100 µg/mL (≈ 216 µM)	CC(=O)Nc1ccc(S(=O)(=O)NCc2nc3ccccc3c(=O)n2Nc2ccccc2)cc1
70 µg/mL (≈ 146 µM)	65 µg/mL (≈ 136 µM)	110 µg/mL (≈ 230 µM)	100 µg/mL (≈ 209 µM)	75 µg/mL (≈ 157 µM)	90 µg/mL (≈ 188 µM)	85 µg/mL (≈ 178 µM)	COc1cccc(-n2c(CNS(=O)(=O)c3ccc(NC(C)=O)cc3)nc3ccccc3c2=O)c1
50 µg/mL (≈ 104 µM)	40 µg/mL (≈ 83.6 µM)	100 µg/mL (≈ 209 µM)	90 µg/mL (≈ 188 µM)	50 µg/mL (≈ 104 µM)	65 µg/mL (≈ 136 µM)	55 µg/mL (≈ 115 µM)	COc1ccc(-n2c(CNS(=O)(=O)c3ccc(NC(C)=O)cc3)nc3ccccc3c2=O)cc1
60 µg/mL (≈ 133 µM)	50 µg/mL (≈ 111 µM)	90 µg/mL (≈ 199 µM)	65 µg/mL (≈ 144 µM)	60 µg/mL (≈ 133 µM)	85 µg/mL (≈ 188 µM)	70 µg/mL (≈ 155 µM)	Nc1ccc(S(=O)(=O)NCc2nc3ccccc3c(=O)n2-c2cccc([N+](=O)[O-])c2)cc1
55 µg/mL (≈ 122 µM)	45 µg/mL (≈ 99.7 µM)	75 µg/mL (≈ 166 µM)	60 µg/mL (≈ 133 µM)	55 µg/mL (≈ 122 µM)	75 µg/mL (≈ 166 µM)	65 µg/mL (≈ 144 µM)	Nc1ccc(S(=O)(=O)NCc2nc3ccccc3c(=O)n2-c2ccc([N+](=O)[O-])cc2)cc1
80 µg/mL (≈ 162 µM)	65 µg/mL (≈ 132 µM)	115 µg/mL (≈ 233 µM)	100 µg/mL (≈ 203 µM)	75 µg/mL (≈ 152 µM)	90 µg/mL (≈ 182 µM)	85 µg/mL (≈ 172 µM)	CC(=O)Nc1ccc(S(=O)(=O)NCc2nc3ccccc3c(=O)n2-c2ccccc2[N+](=O)[O-])cc1
75 µg/mL (≈ 152 µM)	60 µg/mL (≈ 122 µM)	110 µg/mL (≈ 223 µM)	95 µg/mL (≈ 193 µM)	70 µg/mL (≈ 142 µM)	80 µg/mL (≈ 162 µM)	80 µg/mL (≈ 162 µM)	CC(=O)Nc1ccc(S(=O)(=O)NCc2nc3ccccc3c(=O)n2-c2cccc([N+](=O)[O-])c2)cc1
70 µg/mL (≈ 142 µM)	55 µg/mL (≈ 111 µM)	105 µg/mL (≈ 213 µM)	90 µg/mL (≈ 182 µM)	70 µg/mL (≈ 142 µM)	85 µg/mL (≈ 172 µM)	80 µg/mL (≈ 162 µM)	CC(=O)Nc1ccc(S(=O)(=O)NCc2nc3ccccc3c(=O)n2-c2ccc([N+](=O)[O-])cc2)cc1
75 µg/mL (≈ 155 µM)	60 µg/mL (≈ 124 µM)	100 µg/mL (≈ 207 µM)	75 µg/mL (≈ 155 µM)	70 µg/mL (≈ 145 µM)	100 µg/mL (≈ 207 µM)	70 µg/mL (≈ 145 µM)	CC(=O)Nc1ccc(S(=O)(=O)NCc2nc3ccccc3c(=O)n2-c2ccccc2Cl)cc1

Continued, compound first:

SMILES	MIC (Candida albicans)	MIC (Aspergillus niger)	MIC (Klebsiella pneumoniae)	MIC (Pseudomonas aeruginosa)	MIC (Escherichia coli)	MIC (Bacillus cereus)	MIC (Staphylococcus aureus)
Nc1ccc(S(=O)(=O)NCc2nc3ccccc3c(=O)n2-c2ccccc2Br)cc1	55 µg/mL (≈ 113 µM)	45 µg/mL (≈ 92.7 µM)	85 µg/mL (≈ 175 µM)	65 µg/mL (≈ 134 µM)	55 µg/mL (≈ 113 µM)	70 µg/mL (≈ 144 µM)	55 µg/mL (≈ 113 µM)
Nc1ccc(S(=O)(=O)NCc2nc3ccccc3c(=O)n2-c2ccccc2F)cc1	65 µg/mL (≈ 153 µM)	55 µg/mL (≈ 130 µM)	95 µg/mL (≈ 224 µM)	70 µg/mL (≈ 165 µM)	65 µg/mL (≈ 153 µM)	90 µg/mL (≈ 212 µM)	65 µg/mL (≈ 153 µM)
Nc1ccc(S(=O)(=O)NCc2nc3ccccc3c(=O)n2-c2ccc(F)cc2)cc1	60 µg/mL (≈ 141 µM)	45 µg/mL (≈ 106 µM)	85 µg/mL (≈ 200 µM)	65 µg/mL (≈ 153 µM)	55 µg/mL (≈ 130 µM)	55 µg/mL (≈ 130 µM)	60 µg/mL (≈ 141 µM)
Nc1ccc(S(=O)(=O)NCc2nc3ccccc3c(=O)n2Nc2ccccc2)cc1	115 µg/mL (≈ 273 µM)	105 µg/mL (≈ 249 µM)	115 µg/mL (≈ 273 µM)	95 µg/mL (≈ 225 µM)	90 µg/mL (≈ 214 µM)	105 µg/mL (≈ 249 µM)	100 µg/mL (≈ 237 µM)
Nc1ccc(S(=O)(=O)NCc2nc3ccccc3c(=O)n2-c2ccccc2[N+](=O)[O-])cc1	65 µg/mL (≈ 144 µM)	55 µg/mL (≈ 122 µM)	95 µg/mL (≈ 210 µM)	75 µg/mL (≈ 166 µM)	70 µg/mL (≈ 155 µM)	85 µg/mL (≈ 188 µM)	75 µg/mL (≈ 166 µM)
Nc1ccc(S(=O)(=O)NCc2nc3ccccc3c(=O)n2-c2ccccc2Cl)cc1	60 µg/mL (≈ 136 µM)	50 µg/mL (≈ 113 µM)	90 µg/mL (≈ 204 µM)	60 µg/mL (≈ 136 µM)	55 µg/mL (≈ 125 µM)	90 µg/mL (≈ 204 µM)	60 µg/mL (≈ 136 µM)
Nc1ccc(S(=O)(=O)NCc2nc3ccccc3c(=O)n2-c2cccc(Cl)c2)cc1	55 µg/mL (≈ 125 µM)	50 µg/mL (≈ 113 µM)	80 µg/mL (≈ 181 µM)	55 µg/mL (≈ 125 µM)	50 µg/mL (≈ 113 µM)	65 µg/mL (≈ 147 µM)	55 µg/mL (≈ 125 µM)
Nc1ccc(S(=O)(=O)NCc2nc3ccccc3c(=O)n2-c2ccc(Cl)cc2)cc1	45 µg/mL (≈ 102 µM)	40 µg/mL (≈ 90.7 µM)	75 µg/mL (≈ 170 µM)	50 µg/mL (≈ 113 µM)	45 µg/mL (≈ 102 µM)	55 µg/mL (≈ 125 µM)	45 µg/mL (≈ 102 µM)
